Results as given in patent publication US20230085307A1, “PYRIDAZINONE COMPOUND AND HERBICIDE” (NISSAN CHEMICAL CORPORATION, priority 2019, published 2023).

Columns and labels:
barnyard grass [1] = assay: Test Example 3: herbicidal effect by foliage application, Wagner pot (Table 18, symbol H); format: in vivo, barnyard grass (Echinochloa crus-galli); conditions: 96 g/ha
Outline: (§1)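 Plants were sown in alluvial soil held under 0.1–0.5 cm standing water and grown 14 days in a greenhouse at 25–30 °C. An emulsifiable formulation, water-diluted to the set dose, was then sprayed onto the foliage, and effects were scored three weeks later using previously defined criteria.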

Chinese sprangletop = assay: Test Example 3: herbicidal effect by foliage application, Wagner pot (Table 18, symbol D); format: in vivo, chinese sprangletop (Leptochloa chinensis); conditions: 96 g/ha
Outline: as §1

southern crabgrass [2] = assay: Test Example 4: herbicidal effect by soil treatment (Table 19, symbol F); format: in vivo, southern crabgrass (Digitaria ciliaris)
Outline: (§2)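 Seeds were sown in sterilized diluvial soil and covered with about 1.5 cm of soil. An emulsion formulation diluted with water to a predetermined herbicide amount was sprayed evenly onto the soil surface. Plants grew in a greenhouse at 25° C. to 30° C., and the effect was scored three weeks after application using criteria from an earlier test.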

green foxtail [3] = assay: Test Example 4: herbicidal effect by soil treatment (Table 19, symbol G); format: in vivo, green foxtail (Setaria viridis)
Outline: as §2

barnyard grass [4] = assay: Test Example 4: herbicidal effect by soil treatment (Table 19, symbol H); format: in vivo, barnyard grass (Echinochloa crus-galli)
Outline: as §2

wild oat [5] = assay: Test Example 4: herbicidal effect by soil treatment (Table 19, symbol I); format: in vivo, wild oat (Avena fatua)
Outline: as §2

blackgrass [6] = assay: Test Example 4: herbicidal effect by soil treatment (Table 19, symbol J); format: in vivo, blackgrass (Alopecurus myosuroides)
Outline: as §2

Italian ryegrass [7] = assay: Test Example 4: herbicidal effect by soil treatment (Table 19, symbol K); format: in vivo, Italian ryegrass (Lolium multiflorum)
Outline: as §2

windgrass [8] = assay: Test Example 4: herbicidal effect by soil treatment (Table 19, symbol L); format: in vivo, windgrass (Apera spica-venti)
Outline: as §2

velvetleaf [9] = assay: Test Example 4: herbicidal effect by soil treatment (Table 19, symbol M); format: in vivo, velvetleaf (Abutilon theophrasti)
Outline: as §2

redroot pigweed [10] = assay: Test Example 4: herbicidal effect by soil treatment (Table 19, symbol N); format: in vivo, redroot pigweed (Amaranthus retroflexus)
Outline: as §2

lambsquarters [11] = assay: Test Example 4: herbicidal effect by soil treatment (Table 19, symbol O); format: in vivo, lambsquarters (Chenopodium album)
Outline: as §2

chickweed [12] = assay: Test Example 4: herbicidal effect by soil treatment (Table 19, symbol P); format: in vivo, common chickweed (Stellaria media)
Outline: as §2

persian speedwell [13] = assay: Test Example 4: herbicidal effect by soil treatment (Table 19, symbol R); format: in vivo, Persian speedwell (Veronica persica)
Outline: as §2

southern crabgrass [14] = assay: Test Example 5: herbicidal effect by foliage application, plastic box (Table 20, symbol F); format: in vivo, southern crabgrass (Digitaria ciliaris); conditions: foliage application, evaluated three weeks after application
Outline: (§3)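 Plants sown in sterilized diluvial soil and grown 14 days in a greenhouse at 25° C to 30° C, then sprayed on the foliage with the compound's emulsion diluted in water to a predetermined herbicide amount. Injury to weeds and crops scored three weeks after application on a visual rating scale.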

green foxtail [15] = assay: Test Example 5: herbicidal effect by foliage application, plastic box (Table 20, symbol G); format: in vivo, green foxtail (Setaria viridis); conditions: foliage application, evaluated three weeks after application
Outline: as §3

barnyard grass [16] = assay: Test Example 5: herbicidal effect by foliage application, plastic box (Table 20, symbol H); format: in vivo, barnyard grass (Echinochloa crus-galli); conditions: foliage application, evaluated three weeks after application
Outline: as §3

wild oat [17] = assay: Test Example 5: herbicidal effect by foliage application, plastic box (Table 20, symbol I); format: in vivo, wild oat (Avena fatua); conditions: foliage application, evaluated three weeks after application
Outline: as §3

blackgrass [18] = assay: Test Example 5: herbicidal effect by foliage application, plastic box (Table 20, symbol J); format: in vivo, blackgrass (Alopecurus myosuroides); conditions: foliage application, evaluated three weeks after application
Outline: as §3

Italian ryegrass [19] = assay: Test Example 5: herbicidal effect by foliage application, plastic box (Table 20, symbol K); format: in vivo, Italian ryegrass (Lolium multiflorum); conditions: foliage application, evaluated three weeks after application
Outline: as §3

windgrass [20] = assay: Test Example 5: herbicidal effect by foliage application, plastic box (Table 20, symbol L); format: in vivo, windgrass (Apera spica-venti); conditions: foliage application, evaluated three weeks after application
Outline: as §3

velvetleaf [21] = assay: Test Example 5: herbicidal effect by foliage application, plastic box (Table 20, symbol M); format: in vivo, velvetleaf (Abutilon theophrasti); conditions: foliage application, evaluated three weeks after application
Outline: as §3

redroot pigweed [22] = assay: Test Example 5: herbicidal effect by foliage application, plastic box (Table 20, symbol N); format: in vivo, redroot pigweed (Amaranthus retroflexus); conditions: foliage application, evaluated three weeks after application
Outline: as §3

lambsquarters [23] = assay: Test Example 5: herbicidal effect by foliage application, plastic box (Table 20, symbol O); format: in vivo, lambsquarters (Chenopodium album); conditions: foliage application, evaluated three weeks after application
Outline: as §3

chickweed [24] = assay: Test Example 5: herbicidal effect by foliage application, plastic box (Table 20, symbol P); format: in vivo, common chickweed (Stellaria media); conditions: foliage application, evaluated three weeks after application
Outline: as §3

persian speedwell [25] = assay: Test Example 5: herbicidal effect by foliage application, plastic box (Table 20, symbol R); format: in vivo, Persian speedwell (Veronica persica); conditions: foliage application, evaluated three weeks after application
Outline: as §3

[26] = amount of applied herbicide 320 g/ha

Structure (SMILES): Cc1nn(C)c(=O)c(-c2c(-c3ccccc3)sc3ccc(Cl)cc23)c1O [2-094]
- herbicidal effect on H (barnyard grass), rating 0-5 (barnyard grass [1]): 2 (Herbicidal rate of 20% or more and less than 40%)
- herbicidal effect on D (Chinese sprangletop), rating 0-5 (Chinese sprangletop): 0 (Herbicidal rate of 5% or less (almost no effect))
- herbicidal effect rating, F: southern crabgrass (southern crabgrass [2]; 96 g/ha): 0 (Herbicidal rate of 5% or less (almost no effect))
- herbicidal effect rating, G: green foxtail (green foxtail [3]; 96 g/ha): 0 (Herbicidal rate of 5% or less (almost no effect))
- herbicidal effect rating, H: barnyard grass (barnyard grass [4]; 96 g/ha): 0 (Herbicidal rate of 5% or less (almost no effect))
- herbicidal effect rating, I: wild oat (wild oat [5]; 96 g/ha): 0 (Herbicidal rate of 5% or less (almost no effect))
- herbicidal effect rating, J: blackgrass (blackgrass [6]; 96 g/ha): 0 (Herbicidal rate of 5% or less (almost no effect))
- herbicidal effect rating, K: Italian ryegrass (Italian ryegrass [7]; 96 g/ha): 0 (Herbicidal rate of 5% or less (almost no effect))
- herbicidal effect rating, L: windgrass (windgrass [8]; 96 g/ha): 0 (Herbicidal rate of 5% or less (almost no effect))
- herbicidal effect rating, M: velvetleaf (velvetleaf [9]; 96 g/ha): 0 (Herbicidal rate of 5% or less (almost no effect))
- herbicidal effect rating, N: redroot pigweed (redroot pigweed [10]; 96 g/ha): 5 (Herbicidal rate of 90% or more (almost completely withered))
- herbicidal effect rating, O: lambsquarters (lambsquarters [11]; 96 g/ha): 3 (Herbicidal rate of 40% or more and less than 70%)
- herbicidal effect rating, P: chickweed (chickweed [12]; 96 g/ha): 0 (Herbicidal rate of 5% or less (almost no effect))
- herbicidal effect rating, R: persian speedwell (persian speedwell [13]; 96 g/ha): 0 (Herbicidal rate of 5% or less (almost no effect))
- herbicidal effect on F: southern crabgrass (southern crabgrass [14]; 96 g/ha): 0 (Herbicidal rate of 5% or less (almost no effect))
- herbicidal effect on G: green foxtail (green foxtail [15]; 96 g/ha): 0 (Herbicidal rate of 5% or less (almost no effect))
- herbicidal effect on H: barnyard grass (barnyard grass [16]; 96 g/ha): 0 (Herbicidal rate of 5% or less (almost no effect))
- herbicidal effect on I: wild oat (wild oat [17]; 96 g/ha): 0 (Herbicidal rate of 5% or less (almost no effect))
- herbicidal effect on J: blackgrass (blackgrass [18]; 96 g/ha): 0 (Herbicidal rate of 5% or less (almost no effect))
- herbicidal effect on K: Italian ryegrass (Italian ryegrass [19]; 96 g/ha): 2 (Herbicidal rate of 20% or more and less than 40%)
- herbicidal effect on L: windgrass (windgrass [20]; 96 g/ha): 0 (Herbicidal rate of 5% or less (almost no effect))
- herbicidal effect on M: velvetleaf (velvetleaf [21]; 96 g/ha): 3 (Herbicidal rate of 40% or more and less than 70%)
- herbicidal effect on N: redroot pigweed (redroot pigweed [22]; 96 g/ha): 3 (Herbicidal rate of 40% or more and less than 70%)
- herbicidal effect on O: lambsquarters (lambsquarters [23]; 96 g/ha): 2 (Herbicidal rate of 20% or more and less than 40%)
- herbicidal effect on P: chickweed (chickweed [24]; 96 g/ha): 5 (Herbicidal rate of 90% or more (almost completely withered))
- herbicidal effect on R: persian speedwell (persian speedwell [25]; 96 g/ha): 1 (Herbicidal rate of 5% or more and less than 20%)

Structure (SMILES): CCCC(=O)Oc1c(C)nn(C)c(=O)c1-c1c(-c2ccc(OC)cc2)sc2ccc(C)cc12 [2-141]
- F: southern crabgrass, herbicidal effect rating (southern crabgrass [2]; [26]): 0 (Herbicidal rate of 5% or less (almost no effect))
- G: green foxtail, herbicidal effect rating (green foxtail [3]; [26]): 0 (Herbicidal rate of 5% or less (almost no effect))
- H: barnyard grass, herbicidal effect rating (barnyard grass [4]; [26]): 0 (Herbicidal rate of 5% or less (almost no effect))
- I: wild oat, herbicidal effect rating (wild oat [5]; [26]): 0 (Herbicidal rate of 5% or less (almost no effect))
- J: blackgrass, herbicidal effect rating (blackgrass [6]; [26]): 0 (Herbicidal rate of 5% or less (almost no effect))
- K: Italian ryegrass, herbicidal effect rating (Italian ryegrass [7]; [26]): 0 (Herbicidal rate of 5% or less (almost no effect))
- L: windgrass, herbicidal effect rating (windgrass [8]; [26]): 0 (Herbicidal rate of 5% or less (almost no effect))
- M: velvetleaf, herbicidal effect rating (velvetleaf [9]; [26]): 0 (Herbicidal rate of 5% or less (almost no effect))
- N: redroot pigweed, herbicidal effect rating (redroot pigweed [10]; [26]): 0 (Herbicidal rate of 5% or less (almost no effect))
- O: lambsquarters, herbicidal effect rating (lambsquarters [11]; [26]): 0 (Herbicidal rate of 5% or less (almost no effect))
- P: chickweed, herbicidal effect rating (chickweed [12]; [26]): 0 (Herbicidal rate of 5% or less (almost no effect))
- R: persian speedwell, herbicidal effect rating (persian speedwell [13]; [26]): 2 (Herbicidal rate of 20% or more and less than 40%)
- herbicidal effect on F: southern crabgrass (criteria 0-5) (southern crabgrass [14]; 320 g/ha): 0 (Herbicidal rate of 5% or less (almost no effect))
- herbicidal effect on G: green foxtail (criteria 0-5) (green foxtail [15]; 320 g/ha): 0 (Herbicidal rate of 5% or less (almost no effect))
- herbicidal effect on H: barnyard grass (criteria 0-5) (barnyard grass [16]; 320 g/ha): 0 (Herbicidal rate of 5% or less (almost no effect))
- herbicidal effect on I: wild oat (criteria 0-5) (wild oat [17]; 320 g/ha): 0 (Herbicidal rate of 5% or less (almost no effect))
- herbicidal effect on J: blackgrass (criteria 0-5) (blackgrass [18]; 320 g/ha): 0 (Herbicidal rate of 5% or less (almost no effect))
- herbicidal effect on K: Italian ryegrass (criteria 0-5) (Italian ryegrass [19]; 320 g/ha): 0 (Herbicidal rate of 5% or less (almost no effect))
- herbicidal effect on L: windgrass (criteria 0-5) (windgrass [20]; 320 g/ha): 0 (Herbicidal rate of 5% or less (almost no effect))
- herbicidal effect on M: velvetleaf (criteria 0-5) (velvetleaf [21]; 320 g/ha): 0 (Herbicidal rate of 5% or less (almost no effect))
- herbicidal effect on N: redroot pigweed (criteria 0-5) (redroot pigweed [22]; 320 g/ha): 0 (Herbicidal rate of 5% or less (almost no effect))
- herbicidal effect on O: lambsquarters (criteria 0-5) (lambsquarters [23]; 320 g/ha): 0 (Herbicidal rate of 5% or less (almost no effect))
- herbicidal effect on P: chickweed (criteria 0-5) (chickweed [24]; 320 g/ha): 5 (Herbicidal rate of 90% or more (almost completely withered))
- herbicidal effect on R: persian speedwell (criteria 0-5) (persian speedwell [25]; 320 g/ha): 5 (Herbicidal rate of 90% or more (almost completely withered))
